Molecules are shown by their SMILES.

One experiment concerns the target T1, TSSK2 (Homo sapiens, UniProt Q96PF2).
T1 sequence (Q96PF2 1-358): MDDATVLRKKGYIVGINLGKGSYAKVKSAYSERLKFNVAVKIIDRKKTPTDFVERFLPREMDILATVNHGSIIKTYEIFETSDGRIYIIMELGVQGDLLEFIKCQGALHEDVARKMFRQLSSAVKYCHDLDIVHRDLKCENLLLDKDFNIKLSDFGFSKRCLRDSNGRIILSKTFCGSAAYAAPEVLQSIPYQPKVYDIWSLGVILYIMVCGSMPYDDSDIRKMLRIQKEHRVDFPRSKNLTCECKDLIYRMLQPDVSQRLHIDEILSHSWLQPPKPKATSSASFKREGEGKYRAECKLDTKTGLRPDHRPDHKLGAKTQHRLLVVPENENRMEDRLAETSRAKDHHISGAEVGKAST
As to conditions: 1 μM; Run 1, Run 2.

Another experiment concerns the target HIPK2 (Homo sapiens, UniProt Q9H2X6). Put plainly: biochemical. As to conditions: read-out: % enzyme activity, 1 μM; Run 1, Run 2.
A further experiment deals with CDK3/cyclin E2 (Homo sapiens, UniProt Q00526). As to conditions: 1 μM; Run 1, Run 2.
Chain of CDK3/cyclin E2 (Q00526 whole entry): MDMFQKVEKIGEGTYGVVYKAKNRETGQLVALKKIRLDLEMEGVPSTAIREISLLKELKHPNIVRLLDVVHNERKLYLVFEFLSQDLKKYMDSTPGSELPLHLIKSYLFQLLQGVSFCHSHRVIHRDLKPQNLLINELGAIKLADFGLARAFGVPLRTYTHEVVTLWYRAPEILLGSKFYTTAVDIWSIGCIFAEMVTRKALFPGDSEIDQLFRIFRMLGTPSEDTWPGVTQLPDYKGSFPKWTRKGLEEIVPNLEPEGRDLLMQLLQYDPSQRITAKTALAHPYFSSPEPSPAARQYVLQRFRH
Chain of CDK3/cyclin E2 (O96020 whole entry partner): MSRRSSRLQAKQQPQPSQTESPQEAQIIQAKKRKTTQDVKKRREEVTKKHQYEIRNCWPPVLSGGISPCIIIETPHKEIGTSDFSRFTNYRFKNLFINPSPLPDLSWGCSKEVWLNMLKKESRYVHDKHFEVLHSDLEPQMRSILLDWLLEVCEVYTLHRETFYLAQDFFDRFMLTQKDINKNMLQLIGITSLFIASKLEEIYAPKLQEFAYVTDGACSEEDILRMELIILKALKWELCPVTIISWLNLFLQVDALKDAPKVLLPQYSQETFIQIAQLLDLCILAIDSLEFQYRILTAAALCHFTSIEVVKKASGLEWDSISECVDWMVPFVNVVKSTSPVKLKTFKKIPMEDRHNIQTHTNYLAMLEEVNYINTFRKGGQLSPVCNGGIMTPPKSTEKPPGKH
A further experiment addresses RIPK3 (Homo sapiens, UniProt Q9Y572). Kind of experiment: biochemical. As to conditions: read-out: % enzyme activity, 1 μM; Run 1, Run 2.
The target in the next experiment is ROCK2 (Homo sapiens, UniProt O75116). Put plainly: biochemical. The note with it: read-out: % enzyme activity, 1 μM; Run 1, Run 2.
Chain of ROCK2 (O75116 whole entry): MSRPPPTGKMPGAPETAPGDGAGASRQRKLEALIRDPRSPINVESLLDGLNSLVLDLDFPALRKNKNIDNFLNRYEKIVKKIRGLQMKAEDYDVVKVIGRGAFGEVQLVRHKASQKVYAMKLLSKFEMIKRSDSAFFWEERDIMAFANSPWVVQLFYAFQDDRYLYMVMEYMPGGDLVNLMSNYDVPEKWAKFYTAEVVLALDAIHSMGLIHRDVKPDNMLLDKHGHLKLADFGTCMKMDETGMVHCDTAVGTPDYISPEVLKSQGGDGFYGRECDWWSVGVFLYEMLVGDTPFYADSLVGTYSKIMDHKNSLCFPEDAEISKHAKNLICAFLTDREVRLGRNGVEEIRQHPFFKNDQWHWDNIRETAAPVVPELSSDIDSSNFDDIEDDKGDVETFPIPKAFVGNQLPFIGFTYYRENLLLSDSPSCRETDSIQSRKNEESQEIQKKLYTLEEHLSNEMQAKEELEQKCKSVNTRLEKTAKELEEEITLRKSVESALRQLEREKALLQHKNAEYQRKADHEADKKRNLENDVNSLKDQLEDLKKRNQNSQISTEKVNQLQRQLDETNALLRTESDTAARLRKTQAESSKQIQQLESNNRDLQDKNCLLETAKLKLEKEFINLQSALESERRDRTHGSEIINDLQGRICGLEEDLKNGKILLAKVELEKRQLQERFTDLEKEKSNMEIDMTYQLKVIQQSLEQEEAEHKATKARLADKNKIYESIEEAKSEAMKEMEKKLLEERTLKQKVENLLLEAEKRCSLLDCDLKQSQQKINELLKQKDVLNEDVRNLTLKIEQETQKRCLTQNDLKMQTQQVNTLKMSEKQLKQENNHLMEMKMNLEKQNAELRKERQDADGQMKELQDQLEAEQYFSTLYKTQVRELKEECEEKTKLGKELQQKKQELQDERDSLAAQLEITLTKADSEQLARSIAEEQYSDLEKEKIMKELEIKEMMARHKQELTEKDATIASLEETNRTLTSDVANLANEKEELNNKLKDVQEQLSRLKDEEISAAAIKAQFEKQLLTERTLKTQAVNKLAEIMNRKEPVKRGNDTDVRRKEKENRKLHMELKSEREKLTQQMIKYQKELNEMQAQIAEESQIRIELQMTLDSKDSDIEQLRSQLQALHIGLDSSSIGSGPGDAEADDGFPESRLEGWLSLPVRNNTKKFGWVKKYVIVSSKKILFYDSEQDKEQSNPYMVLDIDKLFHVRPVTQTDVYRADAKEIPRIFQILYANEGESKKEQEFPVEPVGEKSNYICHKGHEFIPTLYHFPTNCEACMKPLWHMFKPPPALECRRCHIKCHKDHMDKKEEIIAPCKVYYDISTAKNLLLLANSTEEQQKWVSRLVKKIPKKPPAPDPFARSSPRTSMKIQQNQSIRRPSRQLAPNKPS
In a further experiment the target is CAMK2b (Homo sapiens, UniProt Q13554). The note with it: 1 μM; Run 1, Run 2.
A further experiment concerns the target ABL2/ARG (Homo sapiens, UniProt P42684). Put plainly: biochemical. As to conditions: read-out: % enzyme activity, 1 μM; Run 1, Run 2.
A further experiment deals with MNK1 (Homo sapiens, UniProt Q9BUB5). As to conditions: 1 μM; Run 1, Run 2.
Another experiment addresses CDK16/cyclin Y (PCTAIRE) (Homo sapiens, UniProt Q00536). Put plainly: biochemical. As to conditions: read-out: % enzyme activity, 1 μM; Run 1, Run 2.
The next experiment concerns the target LIMK2 (Homo sapiens, UniProt P53671). As to conditions: 1 μM; Run 1, Run 2.
The target of the next experiment is CDK9/cyclin T2 (Homo sapiens, UniProt P50750). Put plainly: biochemical. As to conditions: read-out: % enzyme activity, 1 μM; Run 1, Run 2.
Chain of CDK9/cyclin T2 (P50750 whole entry): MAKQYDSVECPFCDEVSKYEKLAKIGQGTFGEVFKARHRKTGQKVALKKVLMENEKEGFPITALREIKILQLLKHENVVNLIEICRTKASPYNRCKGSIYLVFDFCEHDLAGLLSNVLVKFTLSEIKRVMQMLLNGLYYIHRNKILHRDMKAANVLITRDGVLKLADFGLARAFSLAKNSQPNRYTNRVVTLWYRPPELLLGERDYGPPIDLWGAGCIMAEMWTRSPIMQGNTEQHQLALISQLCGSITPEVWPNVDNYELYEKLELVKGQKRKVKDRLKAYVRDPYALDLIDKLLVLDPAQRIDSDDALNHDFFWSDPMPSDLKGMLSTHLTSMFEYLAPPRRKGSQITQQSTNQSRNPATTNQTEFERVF
Chain of CDK9/cyclin T2 (O60583 whole entry partner): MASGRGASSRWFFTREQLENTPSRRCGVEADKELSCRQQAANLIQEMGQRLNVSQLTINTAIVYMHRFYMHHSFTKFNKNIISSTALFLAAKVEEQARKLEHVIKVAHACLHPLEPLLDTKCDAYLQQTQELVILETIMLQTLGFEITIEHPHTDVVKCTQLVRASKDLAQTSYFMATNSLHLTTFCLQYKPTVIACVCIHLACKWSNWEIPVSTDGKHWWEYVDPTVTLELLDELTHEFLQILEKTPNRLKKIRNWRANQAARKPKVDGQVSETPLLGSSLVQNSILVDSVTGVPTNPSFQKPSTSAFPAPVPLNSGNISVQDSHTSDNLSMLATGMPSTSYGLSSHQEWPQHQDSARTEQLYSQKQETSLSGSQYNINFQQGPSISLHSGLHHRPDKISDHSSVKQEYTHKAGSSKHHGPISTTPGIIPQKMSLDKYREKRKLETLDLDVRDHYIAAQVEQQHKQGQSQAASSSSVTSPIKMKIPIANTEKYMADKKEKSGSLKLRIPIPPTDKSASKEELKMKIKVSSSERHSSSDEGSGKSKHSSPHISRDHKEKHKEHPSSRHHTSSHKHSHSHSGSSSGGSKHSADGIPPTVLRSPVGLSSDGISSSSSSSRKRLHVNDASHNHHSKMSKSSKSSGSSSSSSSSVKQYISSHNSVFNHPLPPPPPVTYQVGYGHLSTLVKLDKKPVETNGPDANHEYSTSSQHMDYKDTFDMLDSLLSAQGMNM
The target in a further experiment is T2, SGK1 (Homo sapiens, UniProt O00141).
T2 sequence (O00141 1-431): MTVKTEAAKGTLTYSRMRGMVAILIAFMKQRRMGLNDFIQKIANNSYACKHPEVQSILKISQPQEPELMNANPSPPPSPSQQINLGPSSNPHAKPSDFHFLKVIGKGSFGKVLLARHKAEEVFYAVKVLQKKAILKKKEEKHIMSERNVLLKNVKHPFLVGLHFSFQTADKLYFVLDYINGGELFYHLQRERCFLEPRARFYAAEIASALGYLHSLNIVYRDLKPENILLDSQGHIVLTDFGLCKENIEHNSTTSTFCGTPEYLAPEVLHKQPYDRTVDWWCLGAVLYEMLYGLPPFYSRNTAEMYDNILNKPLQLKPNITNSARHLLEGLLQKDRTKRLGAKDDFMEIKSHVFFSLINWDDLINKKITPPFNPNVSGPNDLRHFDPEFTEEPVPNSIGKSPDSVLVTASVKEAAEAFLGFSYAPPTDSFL
Kind of experiment: biochemical. As to conditions: read-out: % enzyme activity, 1 μM; Run 1, Run 2.

The target of a further experiment is T3, PLK4/SAK (Homo sapiens, UniProt O00444).
T3 sequence (O00444 1-970): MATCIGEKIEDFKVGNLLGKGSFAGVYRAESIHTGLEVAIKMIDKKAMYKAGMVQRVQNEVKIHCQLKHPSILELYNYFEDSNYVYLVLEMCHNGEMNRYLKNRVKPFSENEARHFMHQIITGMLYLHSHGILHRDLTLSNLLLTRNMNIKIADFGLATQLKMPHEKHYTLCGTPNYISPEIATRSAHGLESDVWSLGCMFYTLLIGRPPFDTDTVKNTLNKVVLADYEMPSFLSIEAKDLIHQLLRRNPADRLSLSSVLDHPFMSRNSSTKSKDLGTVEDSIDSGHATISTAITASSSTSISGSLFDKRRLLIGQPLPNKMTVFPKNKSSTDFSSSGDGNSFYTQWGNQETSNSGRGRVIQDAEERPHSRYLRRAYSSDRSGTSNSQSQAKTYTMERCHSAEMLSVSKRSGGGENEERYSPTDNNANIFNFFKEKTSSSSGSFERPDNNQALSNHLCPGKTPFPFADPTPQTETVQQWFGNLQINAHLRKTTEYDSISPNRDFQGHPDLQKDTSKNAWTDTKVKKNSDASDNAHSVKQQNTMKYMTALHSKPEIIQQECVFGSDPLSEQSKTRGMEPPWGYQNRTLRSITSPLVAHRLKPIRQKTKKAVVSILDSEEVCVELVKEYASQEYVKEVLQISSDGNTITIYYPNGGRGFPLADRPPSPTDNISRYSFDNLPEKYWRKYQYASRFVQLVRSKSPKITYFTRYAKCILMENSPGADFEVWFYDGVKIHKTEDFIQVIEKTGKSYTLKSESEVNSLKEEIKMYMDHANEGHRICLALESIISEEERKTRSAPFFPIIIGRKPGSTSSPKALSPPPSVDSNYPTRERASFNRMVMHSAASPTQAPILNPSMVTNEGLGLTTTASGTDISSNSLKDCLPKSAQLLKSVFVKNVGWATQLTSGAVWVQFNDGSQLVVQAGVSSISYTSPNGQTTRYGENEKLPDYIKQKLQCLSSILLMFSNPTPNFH
The note with it: 1 μM; Run 1, Run 2.

For the next experiment, the target named is CAMK1g (Homo sapiens, UniProt Q96NX5). The note with it: 1 μM; Run 1, Run 2.
The target in another experiment is T4, CK1a1L (Homo sapiens, UniProt Q8N752).
T4 sequence (Q8N752 1-337): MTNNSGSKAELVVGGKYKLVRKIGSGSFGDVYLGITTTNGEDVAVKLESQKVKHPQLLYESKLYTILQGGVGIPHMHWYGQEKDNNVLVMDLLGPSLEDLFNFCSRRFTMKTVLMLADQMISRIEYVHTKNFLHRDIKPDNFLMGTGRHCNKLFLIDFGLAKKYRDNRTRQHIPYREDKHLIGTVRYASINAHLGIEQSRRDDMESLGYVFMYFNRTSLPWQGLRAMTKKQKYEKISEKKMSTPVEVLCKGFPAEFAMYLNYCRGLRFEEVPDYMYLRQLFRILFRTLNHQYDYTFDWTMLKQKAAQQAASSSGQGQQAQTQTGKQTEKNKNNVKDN
Put plainly: biochemical. As to conditions: read-out: % enzyme activity, 1 μM; Run 1, Run 2.

Chain of ABL2/ARG (P42684 whole entry): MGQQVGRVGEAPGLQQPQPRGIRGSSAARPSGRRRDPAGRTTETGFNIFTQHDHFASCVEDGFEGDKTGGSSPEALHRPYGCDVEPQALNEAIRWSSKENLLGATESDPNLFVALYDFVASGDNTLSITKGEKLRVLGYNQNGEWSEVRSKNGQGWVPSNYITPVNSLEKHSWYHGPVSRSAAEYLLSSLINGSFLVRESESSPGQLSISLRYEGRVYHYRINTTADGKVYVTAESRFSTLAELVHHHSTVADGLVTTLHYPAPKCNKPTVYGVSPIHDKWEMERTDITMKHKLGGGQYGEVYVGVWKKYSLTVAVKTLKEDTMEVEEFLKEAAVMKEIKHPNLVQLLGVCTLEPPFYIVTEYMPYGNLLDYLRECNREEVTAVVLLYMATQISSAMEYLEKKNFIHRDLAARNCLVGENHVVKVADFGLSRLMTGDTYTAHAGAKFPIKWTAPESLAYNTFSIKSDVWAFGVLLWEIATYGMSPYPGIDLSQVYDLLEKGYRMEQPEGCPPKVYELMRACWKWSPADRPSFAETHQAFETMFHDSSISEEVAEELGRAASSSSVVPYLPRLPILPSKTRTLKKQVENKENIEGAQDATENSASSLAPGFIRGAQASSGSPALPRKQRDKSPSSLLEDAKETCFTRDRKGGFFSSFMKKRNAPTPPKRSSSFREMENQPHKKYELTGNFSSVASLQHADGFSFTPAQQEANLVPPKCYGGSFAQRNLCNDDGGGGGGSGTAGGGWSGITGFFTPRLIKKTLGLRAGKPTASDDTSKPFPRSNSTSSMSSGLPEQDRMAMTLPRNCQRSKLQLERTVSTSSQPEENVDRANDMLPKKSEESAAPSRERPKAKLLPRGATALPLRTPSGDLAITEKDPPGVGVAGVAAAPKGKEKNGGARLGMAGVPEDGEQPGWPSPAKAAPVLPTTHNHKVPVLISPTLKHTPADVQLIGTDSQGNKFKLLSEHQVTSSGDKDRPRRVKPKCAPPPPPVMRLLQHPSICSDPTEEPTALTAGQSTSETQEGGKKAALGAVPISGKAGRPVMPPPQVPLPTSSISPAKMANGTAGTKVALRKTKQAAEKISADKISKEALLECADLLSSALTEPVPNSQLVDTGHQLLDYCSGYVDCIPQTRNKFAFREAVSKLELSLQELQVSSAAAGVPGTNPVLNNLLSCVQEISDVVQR
Chain of LIMK2 (P53671 whole entry): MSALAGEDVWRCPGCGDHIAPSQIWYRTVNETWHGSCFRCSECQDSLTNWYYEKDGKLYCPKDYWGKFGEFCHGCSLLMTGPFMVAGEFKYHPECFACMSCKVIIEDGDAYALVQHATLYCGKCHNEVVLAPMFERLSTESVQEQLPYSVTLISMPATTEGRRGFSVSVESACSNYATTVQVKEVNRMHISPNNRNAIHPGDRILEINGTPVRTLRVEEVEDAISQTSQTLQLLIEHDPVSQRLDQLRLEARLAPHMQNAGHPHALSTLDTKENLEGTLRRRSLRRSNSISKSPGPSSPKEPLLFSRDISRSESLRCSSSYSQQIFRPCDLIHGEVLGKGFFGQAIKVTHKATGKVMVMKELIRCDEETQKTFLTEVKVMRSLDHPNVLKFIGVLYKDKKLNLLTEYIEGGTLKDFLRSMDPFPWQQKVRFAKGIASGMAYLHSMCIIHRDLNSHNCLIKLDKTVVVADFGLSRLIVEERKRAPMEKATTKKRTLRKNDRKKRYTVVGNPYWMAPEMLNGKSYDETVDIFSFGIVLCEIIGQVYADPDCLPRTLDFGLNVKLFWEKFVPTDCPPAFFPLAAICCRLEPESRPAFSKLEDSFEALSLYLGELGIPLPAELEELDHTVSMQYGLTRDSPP

For the compound `COc1cc(-c2cncc(-c3ccc(N4CCN(C)CC4)cc3)c2C)cc(F)c1C(N)=O` [Compound 26a, 2-Fluoro-6-methoxy-4-(4-methyl-5-(4-(4-methylpiperazin-1-yl)phenyl)pyridin-3-yl)benzamide], the “% enzyme activity” value at TSSK2 was 98.77%; on CDK3/cyclin E2, 88.05%; on CAMK2b, 83.40%; at MNK1 it was 50.34%; on LIMK2, 99.63%; on PLK4/SAK, 93.32%. In addition, the “% enzyme activity” value on CAMK1g is 99.10%. The remaining activity at 1 µM at HIPK2 was 99.8%; at RIPK3 it was 106%; at ROCK2 it was 116%; on ABL2/ARG, 97.3%; at CDK16/cyclin Y (PCTAIRE), 92.8%; at CDK9/cyclin T2 it was 100%. For the same compound, the remaining activity at 1 µM on SGK1 came to 94.9%; on CK1a1L, 98.4%.

Consider `COc1cc(-c2cncc(-c3ccc(N4C[C@@H](C)N(C)[C@@H](C)C4)cc3)c2C)cc(F)c1C(N)=O` [Compound 26c, 2-Fluoro-6-methoxy-4-(4-methyl-5-(4-((3R,5S)-3,4,5-trimethylpiperazin-1-yl)phenyl)pyridin-3-yl)benzamide], for which the “% enzyme activity” value came to 99.71% at TSSK2; 83.94% on CDK3/cyclin E2; 91.32% at CAMK2b; 70.81% on MNK1; 95.75% on LIMK2; 98.79% on PLK4/SAK. Also, on CAMK1g, the “% enzyme activity” value is listed as 107.66%. Further, the remaining activity at 1 µM on HIPK2 was found to be 103%; at RIPK3, 104%; on ROCK2, 101%; at ABL2/ARG, 97.1%; at CDK16/cyclin Y (PCTAIRE) it was 91.6%; on CDK9/cyclin T2 it was 102%. Besides, the values for the remaining activity at 1 µM at SGK1 and on CK1a1L were 98.8% and 99.4%, respectively.
